Results taken from patent publication US7807712B2, “Oxy substituted chalcones as antihyperglycemic and antidyslipidemic agents” (priority 2004, dated 2010).

Assays:
[1] = tested on: db/db mice; assay: Antihyperglycemic activity in db/db mice; assay type: in vivo, mouse (C57BL/KsBom-db); conditions: for % Fall in blood glucose levels 6 days / % Fall in blood glucose levels 10 days: db/db mice; for % Fall in blood glucose levels 6 days: day 6 postprandial protocol; for % Fall in blood glucose levels 10 days: day 10 OGTT, glucose 3 gm/kg
Text: (§1) The db/db mouse is a well-characterized model of […]. The background for the db/db mouse is the C57BL/Ks strain. The major deficiency of the C57BL/KsBom-db mouse (db/db) is lack of a functional leptin receptor. This leads to defective leptin signaling and a complete lack of feedback from leptin. […] The db/db mouse develops NIDDM from around week 10. The disease is stable until week 20, where destruction of pancreatic β-cells can be recognized clinically as decreasing levels of plasma insulin and very severe hyperglycemia. The male mice are more diabetic than female and will normally die earlier. The advantage of using male mice for experimental purposes is that the fluctuations in plasma parameters are less than in the females where the estrogen cycle affects the clinical diabetes mellitus. The optimal age of db/db mice used for experiments will be from week 12 to 18 when they have developed NIDDM with diabetic dyslipidemia but still have functional β-cells in the pancreas. C57BL/KsBom-db mice 12-18 weeks, 40-50 g bred in the animal house of CDRI, Lucknow. 10 male mice were used in the experiments. The mice were housed in groups of 5 individuals in a room controlled for temperature (23±2° C.) and 12/12 hours light/dark cycle (lights on at 6.00 am). Body weight was measured daily from day 1 to day 10. All animals had free access to fresh water and to normal chow except on the days of the postprandial protocol day 6 and during the overnight fast before the OGTT on day 10. Blood glucose was checked every morning up till day 5. On day 6 postprandial protocol was employed, in this method blood glucose was checked at −0.30 min and 0 h. Test compounds were given to the treatment group whereas control group received only gum acacia (1.0%); the blood glucose was again checked at 1, 2, 3, 4 and 6 h post test compound treatment. Finally on day 10 an oral glucose tolerance test (OGTT) was performed after an overnight fasting. Blood glucose was measured at −0.30 min and test drugs were fed, blood glucose was again measured at 0.0 min post treatment, at this juncture glucose solution was given at a dose of 3 gm/kg to all the groups including control group; the profile of blood glucose was checked at 30 min, 60 min, 90 min and 120 min post glucose administration. Quantitative glucose tolerance of each animal was calculated by Area Under Curve (AUC) method (Prism Software). Comparing the AUC of experimental and control groups determined the percentage antihyperglycemic activity. Statistical comparison was made by Dunnett's test.

[2] = tested on: db/db mice; assay: Antidyslipidemic activity in db/db mice; assay type: in vivo, mouse (C57BL/KsBom-db); conditions: for % Fall in lipid levels HDL: serum HDL-cholesterol; for % Fall in lipid levels Chol.: serum cholesterol; for % Fall in lipid levels TG: serum triglycerides
Text: as §1
Cholesterol and triglycerides were estimated using the same procedures as given above.
HDL-Cholesterol was estimated using the kit provided by the Roche Diagnostics. Cholestest N HDL is a liquid reagent that directly measures the HDL-cholesterol concentration in serum by a new method that is based on the selective solubilising effect of proprietary detergent to the different lipoproteins. In the assay system, only HDL is solubilised by a special detergent; other lipoproteins are not disturbed. After HDL is selectively disrupted, HDL cholesterol is measured enzymatically (Gordon, T.; Casstelli, W. P.; Hjortland, M. C.; Kannel, W. B.; Dawber, T. R. High density lipoproteins as a protective factor against coronary heart disease, Am. J. Med. 1977, 62, 707-714.).

SMILES | % Fall in blood glucose levels 6 days [1] | % Fall in blood glucose levels 10 days [1] | % Fall in lipid levels HDL [2] | % Fall in lipid levels Chol. [2] | % Fall in lipid levels TG [2] | lowering of blood glucose in db/db mice ([1]; summary statement)
COc1ccc(/C=C/C(=O)c2ccc(OCC(O)CN3CCN(c4ccccc4)CC3)cc2)cc1OC (stereo not shown) [Compound 18, 3,4-Dimethoxy-4′-[2-hydroxy-3-(4-phenylpiperazin-1-yl)-propoxy]-chalcone] | 29.9% | 18.9% | 11.8% | 1.36% | +5.20% | 
CC(C)(C)NCC(O)COc1ccc(C(=O)/C=C/c2ccc3c(c2)OCO3)cc1 (stereo not shown) [Compound 34, 4′-[^3-tert-Butylamino-2-hydroxy-propoxy]-3,4-methylenedioxy-chalcone] | NIL | 32.0% | +1.76% | 40.3% | +7.44% | 
O=C1NC(=O)/C(=C\c2ccc(OCCCCCOc3cccc(C(=O)/C=C/c4ccc5c(c4)OCO5)c3)cc2)S1 [Compound 46, 3,4-Methylenedioxy-3′-{5-[4-(thiazolidin-2,4-dione-5-ylidinemethyl)-phenoxy]-pentyloxy}-chalcone] | 1.76% | 23.1% | 21.4% | 18.9% | 6.76% | significant lowering of blood glucose
